Measured values as given in ChEMBL document CHEMBL1155651, “New prenylated anthraquinones and xanthones from Vismia guineensis” (2000).

Key:
Assay type in all cases: functional, PBL
[1] = Antimitotic activity in human peripheral blood lymphocytes assessed as mitotic index at 1 uM
[2] = Antimitotic activity in human peripheral blood lymphocytes assessed as mitotic index at 0.5 uM
[3] = Antimitotic activity in human peripheral blood lymphocytes assessed as mitotic index at 25 uM

CN[C@H]1CCc2cc(OC)c(OC)c(OC)c2-c2ccc(OC)c(=O)cc21 [DEMECOLCINE]
Activity [1]: 70.1%

C[C@]12CC[C@@H]3c4ccc(OC(=O)N(CCCl)CCCl)cc4CC[C@H]3[C@@H]1CC[C@@H]2O [ESTRAMUSTINE]
Activity [1]: 78.7%

COC(C)(C)CCC/C(C)=C/COc1cc(O)c2c(c1)Cc1cc(C)cc(O)c1C2=O
Activity [2]: 47.4% | Activity [1]: 48.7% | Activity [3]: 49.9%
